From patent publication US20220362249A1, “METHODS FOR TREATING […]” (PTC Therapeutics MP, Inc., priority 2019, published 2022)
Several values for one entry are separate records, joined by “and”; a condition that tells them apart may be missing. Identical values can stand only once.

Experiments:
blood Phe = assay: Reduction of blood Phe in patients with PKU, randomized crossover of PTC923 vs sapropterin dihydrochloride; assay type: in vivo, human; settings: for Proportion of patients achieving blood Phe <360 μmol/L: n of 24; for Mean (SD) blood Phe, At baseline: Day 1 pre-dose; for Least squares mean (SE) change from baseline in blood Phe / Mean (SD) blood Phe, Change / Mean (SD) blood Phe, On treatment: 7 days; for Mean (SD) blood Phe, On treatment: mean of days 3, 5 and 7
Experimental: Following screening for eligibility, a 7-day run-in period commenced. Patients then received 7 days of once-daily oral treatment with either PTC923 20 mg/kg/day (“low dose”), or PTC923 60 mg/kg/day or sapropterin dihydrochloride, in a random order. PTC923 (formerly CNSA-001) is oral sepiapterin. Each patient was randomized to one of six treatment sequences (FIG. 2). The randomization in six different treatment sequences was intended to minimize carry over effect, treatment period effect, patient fatigue, and natural fluctuations in blood Phe levels. A 7-day washout period separated each active treatment period. Patients were asked to maintain their usual pre-study diet, including consumption of amino acid mixtures if prescribed, and were monitored throughout the study by a metabolic dietician.
Blood samples for measurement of Phe were taken on 7, 5, 3, and 1 days before randomization. During treatment periods, blood was taken pre-dose for day 1 and post-dose for days 3, 5 and 7. During the washout periods, blood was taken for measurement of Phe on days 1, 3, 5, and 7. All samples were taken under fasting conditions or no earlier than 3 hours following a meal and at the same time of day. Blood Phe was measured using a validated LC-MS-MS technique of dried blood sampling via Volumetric Absorptive Microsampling (VAMS®) using Mitra® 4-sampler clamshells, at a central bioanalytical laboratory (Agilex Biolabs Pty Ltd).
The main objective of the study was to assess the efficacy of PTC923 measured as the mean blood Phe change from baseline. The efficacy population consisted of all patients who were randomized and had blood Phe measurements before treatment and at days 3, 5 and 7 of treatment from at least one treatment period. The safety population consisted of all patients who were randomized and who received any dose of study treatment. The sample size calculation was based on an all-comers, placebo-controlled regulatory study of sapropterin with an observed mean decrease in blood Phe of 99 μmol/L and standard deviation of 220 μmol/L, and assumed a true mean decrease in blood Phe of 300 μmol/L with 80% power utilizing a 2-sided α of 0.05.
Response to PTC923 was evaluated by measuring the mean change from baseline in blood Phe (calculated as the mean of measurements at days 3, 5 and 7 of each treatment period). Day 1 pre-dose blood Phe concentrations for each treatment period served as the individual patient specific baseline for that period.
The change from baseline in blood Phe of each treatment period was modelled using a linear mixed model for repeated measures (MMRM). The efficacy model included fixed effects for baseline for each treatment period, treatment group, sequence, period, and a random subject effect within each sequence, with a first order autoregressive AR (1) covariance structure. No unplanned covariates were included.
Pairwise comparisons in changes from baseline in Phe were performed between each PTC923 treatment and sapropterin treatment by calculating the least squares means with Dunnet's method of adjustment for multiple comparisons. The estimated change in blood Phe levels, their standard errors (SE) and associated p-values were calculated for each pairwise comparison. Dunnet's method of adjustment was used to account for the multiple comparisons of the test groups against the control group. This adjustment ensured that the overall Type I error rate under the null hypothesis was maintained despite multiple test groups being compared to the single control group.
The overall mean changes in blood Phe for each treatment were calculated and the standard deviations (SD) were determined.
A prespecified sensitivity analysis excluded treatment periods where baseline Phe was <300 μmol/L and a responder analysis looked at patients with baselines ≥300 μmol/L who responded to sapropterin and/or to PTC923 treatment by ≥20% reduction.

[1] = Adverse events in patients with PKU on PTC923 or sapropterin dihydrochloride; assay type: in vivo, human; settings: for Headache (all-cause AE): transient
Excerpt: PTC923 safety was monitored and adverse events (AEs) were coded using the Medical Dictionary for Regulatory Activities (MedDRA®) version 21.0. Treatment-emergent adverse events (TEAEs) were defined as AE that began on or after first dose of study drug. A TEAE was associated with the study treatment currently being received, or the last study treatment before its onset. A treatment-related TEAE was, in the judgment of the investigator possibly, probably or definitely related to treatment. A serious AE (SAE) was defined as resulting in death, life-threatening AE, inpatient hospitalization or prolongation of existing hospitalization, a persistent or significant disability/incapacity or a substantial disruption of the ability to conduct normal life functions, or a congenital anomaly/birth defect.

[2] = All subjects (N = 24), 20 mg/kg/day oral
[3] = All subjects (N = 24), 60 mg/kg/day oral
[4] = Subjects with classical PKU (N = 11), 20 mg/kg/day oral
[5] = Subjects with classical PKU (N = 11), 60 mg/kg/day oral
[6] = patients on PTC923 60mg/kg with at least 30% reduction in Phe

C[C@H](O)C(=O)C1=Nc2c(nc(N)[nH]c2=O)NC1 [sepiapterin, Sepiapterin]
Proportion of patients achieving blood Phe <360 μmol/L (blood Phe; 20 mg/kg): 46%
Proportion of patients achieving blood Phe <360 μmol/L (blood Phe; 60 mg/kg): 50%
LSM difference in blood Phe change vs. sapropterin dihydrochloride (blood Phe; 11 patients with classical PKU, PTC923 60 mg/kg): -148.0 µmol/L
Mean (SD) blood Phe, At baseline (blood Phe; All subjects (N = 24), 20 mg/kg period): 694.2 (396.0) μmol/L
Least squares mean (SE) change from baseline in blood Phe (blood Phe; [2]): −146.9 (41.8) μmol/L
Mean (SD) blood Phe, Change (blood Phe; [2]): −143.7 (224.8) μmol/L
Mean (SD) blood Phe, On treatment (blood Phe; [2]): 550.4 (433.7) μmol/L
Mean (SD) blood Phe, At baseline (blood Phe; All subjects (N = 24), 60 mg/kg period): 727.8 (388.2) μmol/L
Least squares mean (SE) change from baseline in blood Phe (blood Phe; [3]): −206.4 (41.8) μmol/L
Mean (SD) blood Phe, Change (blood Phe; [3]): −210.1 (235.8) μmol/L
Mean (SD) blood Phe, On treatment (blood Phe; [3]): 517.7 (411.7) μmol/L
Least squares mean change from baseline in blood Phe to first Phe measurement (Day 3) (blood Phe; Day 3, 20 mg/kg): -167.5 µmol/L
Least squares mean change from baseline in blood Phe to first Phe measurement (Day 3) (blood Phe; Day 3, 60 mg/kg): -206.6 µmol/L
LSM difference in blood Phe change vs. sapropterin dihydrochloride (blood Phe; Day 3, PTC923 20 mg/kg, underlying changes in μmol/L): −95.2
LSM difference in blood Phe change vs. sapropterin dihydrochloride (blood Phe; Day 3, PTC923 60 mg/kg, underlying changes in μmol/L): −131.3
Effect on blood Phe compared with sapropterin dihydrochloride 20 mg/kg (in words) (blood Phe; PTC923 20 mg/kg): numerically larger
Reducing blood Phe compared with sapropterin dihydrochloride 20 mg/kg (in words) (blood Phe; PTC923 60 mg/kg, p=0.0098): significantly more effective
Mean absolute reduction in plasma phenylalanine (FIG. 1) (blood Phe; PTC923 (60 mg/kg/day)): over 200 micromole per liter
Mean (SD) blood Phe, At baseline (blood Phe; Subjects with classical PKU (N = 11), 20 mg/kg period): 944.6 (354.6) μmol/L
Mean (SD) blood Phe, Change (blood Phe; [4]): −75.5 (201.8) μmol/L
Least squares mean (SE) change from baseline in blood Phe (blood Phe; Subjects with classical PKU (N = 11), 20 mg/kg/day oral, listed as PTC923, 20 mg/kg/day): −71.5 μmol/L and −71.5 (61.8) μmol/L
Mean (SD) blood Phe, On treatment (blood Phe; [4]): 869.1 (424.1) μmol/L
Mean (SD) blood Phe, At baseline (blood Phe; Subjects with classical PKU (N = 11), 60 mg/kg period): 947.2 (363.0) μmol/L
Mean (SD) blood Phe, Change (blood Phe; [5]): −146.0 (187.7) μmol/L
Least squares mean (SE) change from baseline in blood Phe (blood Phe; Subjects with classical PKU (N = 11), 60 mg/kg/day oral, listed as PTC923, 60 mg/kg/day): −150.8 μmol/L and −150.8 (63.1) μmol/L
Mean (SD) blood Phe, On treatment (blood Phe; [5]): 801.2 (396.5) μmol/L
Classical PKU subjects responding with a decrease in phenylalanine levels of at least 20% (blood Phe; classical PKU subjects): about 45%
Number of patients showing blood Phe reduction of ≥20%, higher than with sapropterin (blood Phe; cofactor responder analysis): 50%
Number of subjects normalized (day 7 blood phenylalanine less than 120 micromole per liter) compared to sapropterin dihydrochloride (blood Phe; day 7): 3-4 times
Least squares mean change from baseline in blood Phe (blood Phe; group of 12 responders (Phe reduction ≥20%, baseline ≥300 μmol/L), 20 mg/kg): -234.8 µmol/L
Least squares mean change from baseline in blood Phe (blood Phe; group of 12 responders (Phe reduction ≥20%, baseline ≥300 μmol/L), 60 mg/kg): -322.2 µmol/L
LSM difference in blood Phe change vs. sapropterin dihydrochloride (blood Phe; group of 12 responders, PTC923 60 mg/kg): -182.5 µmol/L
Subject-reported effects (in words) (blood Phe; human, in vivo): improvement in sleep quality and better focus
Times more likely to reach normalized blood phenylalanine (less than 120 micromole per liter) compared to sapropterin dihydrochloride (blood Phe; human, in vivo): 13.45 times
Non-classical subjects normalized (blood phenylalanine less than 120 micromole per liter) (blood Phe; non-classical subjects): 46%
Proportion of patients achieving blood Phe <360 μmol/L (blood Phe; on either dose of PTC923): 54%
More subjects responded than to sapropterin dihydrochloride (blood Phe; overall responders): 60%
Absolute Phe reduction from baseline (blood Phe; [6]): -485.3 µmol/L
Absolute mean percentage change in Phe from baseline (blood Phe; [6]): -72.5%
Least squares mean change from baseline in blood Phe (blood Phe; sensitivity analysis population (excluding periods with baseline Phe <300 μmol/L), 20 mg/kg): -167.8 µmol/L
Least squares mean change from baseline in blood Phe (blood Phe; sensitivity analysis population (excluding periods with baseline Phe <300 μmol/L), 60 mg/kg): -226.9 µmol/L
LSM difference in blood Phe change vs. sapropterin dihydrochloride (blood Phe; sensitivity analysis population, PTC923 60 mg/kg): -121.4 µmol/L
Patients reporting any adverse event ([1]; 20 mg/kg): 25%
Patients reporting severe AE ([1]; 20 mg/kg): 4%
Patients reporting treatment-related AE ([1]; 20 mg/kg): 0%
Headache (all-cause AE) ([1]; 20 mg/kg): 4%
Patients reporting any adverse event ([1]; 60 mg/kg): 29%
Patients reporting severe AE ([1]; 60 mg/kg): 0%
Patients reporting treatment-related AE ([1]; 60 mg/kg): 13%
Headache (all-cause AE) ([1]; 60 mg/kg): 17%
